Measured values from patent US11230545B2, “Heterocyclic compound” (Takeda Pharmaceutical Company Limited, priority 2018, dated 2022).

Key:
OCI-Ly3 cells = test: Measurement of growth inhibitory activity using OCI-Ly3 cells; type: cell-based; settings: Homo sapiens, 144 h, 3 μm compound, 6 days, read-out: Cell growth inhibition rate (%) at 3 μm compound
Description: OCI-Ly3 cells were seeded in a cell culture medium IMDM (Fujifilm Wako Pure Chemical Corporation) containing 20% FCS (fetal calf serum, Thermo Fisher Scientific) and monothioglycerol (Fujifilm Wako Pure Chemical Corporation) so as to be at 1.25×10^3 cells/well on a 96-well plate. Cell Titer-Glo solution (Promega) was added to cells to which the test compound had not been added, followed by stirring at room temperature for 15 minutes. Subsequently, the luminescence value was measured with Envision (PerkinElmer) on the day of seeding. Cells to which the test compound dissolved in dimethyl sulfoxide (Fujifilm Wako Pure Chemical Corporation) had been added were allowed to stand in a CO2 incubator (37° C.) for 6 days. Subsequently, the luminescence value was measured in the same manner. The inhibition rate (%) of the test compound on OCI-Ly3 cell growth was calculated by the following formula. Cell growth inhibition rate (%)=(1−(Luminescent value on day 6 of test compound treatment−Luminescent value before test compound treatment)/(Luminescent value on day 6 without compound addition−Luminescent value before compound treatment))×100

recombinant human MALT1 = biological target: T1, recombinant human MALT1 (Homo sapiens, UniProt Q9UDY8); test: Measurement of MALT1 enzyme inhibitory activity; type: biochemical; settings: read-out: MALT1 enzyme inhibition rate (%) at 3 μM compound
T1 construct: to form a human MALT1 (340-789aa) dimer; His tag (from pET28a, N-terminal) (N); yeast GCN4 leucine zipper (251-281aa), fusion partner for dimerisation (N); translates to GSGSGS), between GCN4 zipper and MALT1 (N); His tag (C-terminal) (C); made in house; host or cells: E. coli BL21 (DE3)
Description: On the human MALT1 gene, PCR was carried out using GC-030-[…] (pENTR221/MALT1, GeneCopoeia) as a template with primers having BamH I restriction enzyme at the N-terminal and Not I restriction enzyme at the C-terminal to form a human MALT1 (340-789aa) dimer. […] Both of the obtained fragments were treated with the restriction enzymes, and inserted between Nde I and Not I of a pET28a (Novagen) vector to yield a recombinant human MALT1 protein expression vector pET28a/His-LZ-hMALT1v1 (340-789)-His. The recombinant human MALT1 protein was prepared by transforming the expression plasmid prepared as above with ECOS Competent E. coli BL21 (DE3) (Nippon Gene Co., Ltd.). Escherichia coli obtained by transformation was inoculated into 300 mL of LB medium (1% tryptone, 0.5% yeast extract, 0.5% sodium chloride, 0.01% ampicillin) and cultured at 30° C. for 16 hours. […] Furthermore, culturing was carried out for 16 hours to induce expression of human MALT1 protein. After completion of the culture, the culture solution was centrifuged at 5,000 rpm for 10 minutes. […] This crushed liquid was centrifuged (15,300×G, 30 min, TOMY MX-301), and the obtained supernatant was passed through and adsorbed to a Ni-NTA Superflow (QIAGEN) column previously equilibrated with 50 mM Tris-HCl pH 8.0, 300 mM NaCl, 5 mM DTT and 10% glycerol, followed by elution in a buffer containing 50 mM Tris-HCl pH 8.0, 300 mM NaCl, 5 mM DTT, 10% glycerol and 250 mM imidazole. […] The prepared protein was stored at -30° C., and the protein concentration was measured with a BCA Protein Assay Kit (PIERCE) using BSA as a standard. […] Subsequently, 2 μL of a purified recombinant human MALT1 enzyme solution was added, followed by incubation for 60 minutes at room temperature. To the mixture were added 2 μL of a substrate solution (75 μM Ac-LRSR-AFC (SM Biochemicals), 20 mM HEPES (Dojin Laboratories), 10 mM KCl (Wako Pure Chemical Industries, Ltd.), 1.5 mM MgCl2 (Sigma-Aldrich), 1 mM EDTA (pH 8.0) (Nippon Gene Co., Ltd.), 0.01% Triton X-100 (Sigma-Aldrich) and 1 mM DTT (Wako Pure Chemical Industries, Ltd.), followed by incubation for 60 minutes at room temperature. The fluorescence values of excitation 400 nm and emission 485 nm immediately after substrate addition and after enzymatic reaction were measured with a plate reader Envision (PerkinElmer), and the fluorescence values increased by enzymatic reaction were used for calculation of the inhibition rate (%).

[1] = system: Human diffuse large-cell B-cell lymphoma cells OCI-Ly3; test: Antitumor effect on OCI-Ly3 cell-bearing cancer model; type: in vivo; settings: average tumor volume increase ratio; 10 mg/kg orally twice daily for 3 weeks; NOG female mice, OCI-Ly3 subcutaneous
Description: Human diffuse large-cell B-cell lymphoma cells OCI-Ly3 (DSMZ, German Collection of Microorganisms and Cell Cultures) were suspended in a Matrigel (BD Biosciences):HBSS (Thermo Fisher Scientific)=1:1 solution, and 1×10^7 cells were transplanted subcutaneously into the abdomen of NOG female mice (CLEA Japan, Inc.). The tumor diameter of the engrafted tumor was measured, and the tumor volume was calculated by the following formula. Tumor volume=major axis×minor axis×minor axis×(½)
Individuals with the engrafted tumor having a tumor volume of about 120 mm^3 were selected, and 6 animals per group were used in the experiment. A suspension of the test compound in 0.5% methylcellulose solution (Fujifilm Wako Pure Chemical Corporation) was orally administered at a dose of 10 mg/kg (10 mL/kg) twice daily for 3 weeks. The tumor volume was measured on the day before the start of administration and every 3 to 4 days over time, and the tumor diameter was finally measured the day after the end of administration for 21 days to calculate the tumor volume. The tumor growth of the test compound-administered group compared with the control-administered group was calculated by the following formula as an average tumor volume increase ratio T/C. T/C=((Tumor volume after the end of administration for the test compound-administered group−Tumor volume of the day before the start of administration for the test compound-administered group)/(Tumor volume after the end of administration for the control-administered group−Tumor volume of the day before the start of administration for the control-administered group))×100

T1 sequence (Q9UDY8 340-789): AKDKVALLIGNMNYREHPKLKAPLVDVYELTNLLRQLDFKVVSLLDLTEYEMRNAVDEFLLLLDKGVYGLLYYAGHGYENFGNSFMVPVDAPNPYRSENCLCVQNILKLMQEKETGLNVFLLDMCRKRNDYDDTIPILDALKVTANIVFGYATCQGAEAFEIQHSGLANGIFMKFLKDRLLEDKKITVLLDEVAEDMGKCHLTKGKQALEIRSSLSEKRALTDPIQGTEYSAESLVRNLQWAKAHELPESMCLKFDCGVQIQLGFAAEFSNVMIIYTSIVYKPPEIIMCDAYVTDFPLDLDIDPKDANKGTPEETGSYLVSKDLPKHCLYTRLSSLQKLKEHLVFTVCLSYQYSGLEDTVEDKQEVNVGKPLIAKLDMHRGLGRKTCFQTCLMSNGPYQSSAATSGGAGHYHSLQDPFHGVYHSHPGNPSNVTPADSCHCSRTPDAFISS
T1 sequence (P03069 251-281 partner limits assumed): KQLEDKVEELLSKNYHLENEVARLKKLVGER

| inhibition at 3 µM (recombinant human MALT1) | SMILES | inhibition at 3 µM (OCI-Ly3 cells) | T/C (%) [1] |
| --- | --- | --- | --- |
| 104% | CO[C@@H](C)c1c(NC(=O)Nc2cnc(OC(F)F)c(Cl)c2)cnn2cc(C)nc12 [Example 1, (S)—N-(5-Chloro-6-(difluoromethoxy)pyridin-3-yl)-N′-(8-(1-methoxyethyl)-2-methylimidazo[1,2-b]pyridazin-7-yl)urea] | 96% | 13.4% |
| 99% | CO[C@@H](C)c1c(NC(=O)Nc2cnc(-n3nccn3)c(C(F)(F)F)c2)cnc2ccc(Cl)nc12 [Example 2, (S)—N-(6-Chloro-4-(1-methoxyethyl)-1,5-naphthyridin-3-yl)-N′-(6-(2H-1,2,3-triazol-2-yl)-5-(trifluoromethyl)pyridin-3-yl)urea] | 97% | 2.0% |
| 101% | CO[C@@H](C)c1c(NC(=O)Nc2cnc(-n3nccn3)c(C(F)(F)F)c2)cnc2ccc(C)nc12 [Example 3, (S)—N-(4-(1-Methoxyethyl)-6-methyl-1,5-naphthyridin-3-yl)-N′-(6-(2H-1,2,3-triazol-2-yl)-5-(trifluoromethyl)pyridin-3-yl)urea] | 99% | 38.7% |
| 111% | CO[C@@H](C)c1c(NC(=O)Nc2cnc(-n3nccn3)c(Cl)c2)cnn2cc(C)nc12 [Example 4, (S)—N-(5-Chloro-6-(2H-1,2,3-triazol-2-yl)pyridin-3-yl)-N′-(8-(1-methoxyethyl)-2-methylimidazo[1,2-b]pyridazin-7-yl)urea] | 97% | 43.3% |
